The record followed here is patent publication US12441704B2, “Compounds active towards nuclear receptors” (NUEVOLUTION A/S, priority 2019, dated 2025).

In this assay the target is T1, RORγ ligand-binding domain fused to Gal4 (Homo sapiens, UniProt P51449).
T1 construct: Gal4 (galactose-responsive transcription factor); expressed in transfected cells; host or cells: HEK293
T1 sequence (P51449 269-508 limits assumed): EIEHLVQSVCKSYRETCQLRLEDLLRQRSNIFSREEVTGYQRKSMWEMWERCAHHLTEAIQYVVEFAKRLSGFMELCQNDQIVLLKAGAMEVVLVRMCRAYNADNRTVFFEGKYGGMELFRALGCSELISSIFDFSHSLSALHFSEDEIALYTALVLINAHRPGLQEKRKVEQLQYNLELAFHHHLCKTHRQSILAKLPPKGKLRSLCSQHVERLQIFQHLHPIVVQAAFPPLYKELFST
Briefly: RORγ Reporter Assay (Gal4). The class given is cell-based. On the procedure:
The HEK293 cell line is co-transfected transiently with two plasmids, one with the RORγ ligand-binding domain fused to galactose-responsive transcription factor (Gal4), and the other with the luciferase reporter gene and Gal binding sites (UAS). This construction allows to determine the RORγ activity in a cellular system through the measurement of luminescence.
A suspension of RORγ reporter cells was dispensed into plates and cultured 2 h at 37° C. and 5% CO2. Media formulation consisted in DMEM/F-12 medium (Gibco) supplemented with 10% heat inactivated FBS (Sigma-Aldrich), non-essential aminoacids (Sigma-Aldrich), 2 mM Glutamax (Gibco) and 100 U/mL penicillin (Sigma-Aldrich). Dose-response curves with compounds were prepared in 100% DMSO and further diluted 100-fold in culture medium. Compound solutions were added to the plate containing cells (final DMSO concentration of 0.1%) and incubated for 24 h at 37° C. and 5% CO2. Luciferase detection reagent was added to each well, and relative light units (RLUs) were quantified from each assay well using a plate reading luminometer.
Values of average RLU±S.D. were computed for all treatment sets, followed by the calculations of percent-reduction of RORγ activity in response to respective test compound. The following formula was used: activity=100*[1−[x test compound/average vehicle] where the theoretical minimum reduction (0% reduction).
For orientation: Reporter assays use an easily measured gene product as a stand-in for the process of interest.

The mark [1] stands for this setting: HEK293 cells co-transfected with RORγ LBD-Gal4 and luciferase reporter, 24 h incubation, absolute EC50, read-out: EC50.

Each structure is given as a SMILES string. Read-outs that look alike come from different tables or passages of the source.

What is called EC50 is the concentration needed to bring the measured effect to its halfway point.

As to `NC(=O)CN1CCC(CNc2ncnc(N(Cc3ccc(C(F)(F)F)cc3)C3CC3)c2F)C(C(F)(F)F)C1` (single isomer, unassigned) [Example A7-07-1, 2-(4-(((6-(cyclopropyl(4-(trifluoromethyl)benzyl)amino)-5-fluoropyrimidin-4-yl)amino)methyl)-3-(trifluoromethyl)piperidin-1-yl)acetamide], the concentration for a half-maximal effect (EC50) under setting [1] came to 49 nM.
Turning to `NC(=O)CN1CCC(CNc2ncnc(N(Cc3ccc(C(F)(F)F)cc3)C3CC3)c2F)C(C(F)(F)F)C1` (single isomer, unassigned) [Example A7-07-2, 2-(4-(((6-(cyclopropyl(4-(trifluoromethyl)benzyl)amino)-5-fluoropyrimidin-4-yl)amino)methyl)-3-(trifluoromethyl)piperidin-1-yl)acetamide], the concentration giving a half-maximal response (EC50) under setting [1] came to 93 nM.
On the same count and under the same terms, the same measure for `NC(=O)CN1CCC(CNc2ncnc(N(Cc3ccc(C(F)(F)F)cc3)C3CC3)c2F)C(C(F)(F)F)C1` (single isomer, unassigned) [Example A7-07-4, 2-(4-(((6-(cyclopropyl(4-(trifluoromethyl)benzyl)amino)-5-fluoropyrimidin-4-yl)amino)methyl)-3-(trifluoromethyl)piperidin-1-yl)acetamide]: 170 nM; for `NC(=O)CN1CC[C@@H](CNc2ncnc(N(Cc3ccc(OC(F)F)cc3F)C3CCC3)c2F)[C@H](O)C1` (single isomer, unassigned) [Example A7-15-1]: 51 nM; for `NC(=O)CN1CC[C@@H](CNc2ncnc(N(Cc3ccc(C(F)(F)F)cc3)C3CCC3)c2F)[C@H](O)C1` (single isomer, unassigned) [Example A7-16-1]: 25 nM.
Turning to `NC(=O)CN1CC[C@H](CNc2ncnc(N(Cc3cnc(C(F)(F)F)nc3)C3CC3)c2F)[C@@H](O)C1` (single isomer, unassigned) [Example A7-17-1], the EC50 runs as follows: under setting [1], 40 nM; (compounds of the present disclosure, value from Table 2 herein, read-out: Gal4 assay EC50) less than 100 nM.
For `NC(=O)CN1CC[C@H](CNc2ncnc(N(Cc3cnc(C(F)(F)F)nc3)C3CCC3)c2F)[C@@H](O)C1` (single isomer, unassigned) [Example A7-18-1], under setting [1], the EC50 came to 140 nM.
The same measure, in the same setting: the same measure for `NC(=O)CN1CC[C@H](CNc2ncnc(N(Cc3cnc(C(F)(F)F)nc3)C3CCC3)c2F)[C@@H](O)C1` (single isomer, unassigned) [Example A7-18-2]: 82 nM; for `CN(Cc1ccc(C(F)(F)F)cc1)c1ncnc(NC[C@H]2CCN(CC(N)=O)C[C@@H]2O)c1F` (single isomer, unassigned) [Example A7-20-1]: 35 nM.
In the case of `CN(Cc1ccc(C(F)(F)F)cc1)c1ncnc(NC[C@H]2CCN(CC(N)=O)C[C@@H]2O)c1F` (single isomer, unassigned) [Example A7-20-2], the concentration for a half-maximal effect (EC50) under setting [1] stood at 32 nM.
With `CCN(Cc1ccc(C(F)(F)F)cc1)c1ncnc(NC[C@H]2CCN(CC(N)=O)C[C@@H]2O)c1F` (single isomer, unassigned) [Example A7-21-1], the EC50 under setting [1] was 9.3 nM.
With `CCN(Cc1ccc(C(F)(F)F)cc1)c1ncnc(NC[C@H]2CCN(CC(N)=O)C[C@@H]2O)c1F` (single isomer, unassigned) [Example A7-21-2], the EC50 under setting [1] turned out to be 13 nM.
Same read-out and setting: in the case of `NC(=O)CN1CC[C@H](CNc2ncnc(N(Cc3ccc(C(F)(F)F)cc3F)C3CC3)c2F)[C@@H](O)C1` (single isomer, unassigned) [Example A7-22-1] it was 4.9 nM; in that of `NC(=O)CN1CC[C@H](CNc2ncnc(N(Cc3ccc(C(F)(F)F)cc3F)C3CC3)c2F)[C@@H](O)C1` (single isomer, unassigned) [Example A7-22-2], 3.4 nM; in that of `NC(=O)CN1CC[C@@H](CNc2ncnc(N(Cc3ccc(C(F)(F)F)nc3)C3CCC3)c2F)[C@H](O)C1` (single isomer, unassigned) [Example A7-23-1], 81 nM.
Same read-out and setting: the same measure for `NC(=O)CN1CC[C@@H](CNc2ncnc(N(Cc3ccc(C(F)F)nc3)C3CC3)c2F)[C@H](O)C1` (single isomer, unassigned) [Example A7-25-1]: 630 nM.
